The results in this text go back to patent publication US11104630B2, “Synthesis of mono-chlorinated acetophenone” (SIEGFRIED AG, priority 2017, dated 2021).

The series in a line: Solubility of the starting material in the solvent. It counts as physicochemical. To be noted: 20° C., until clear solution. The procedure:
Solubility of the Starting Material in the Solvent
To 1 g of HAP is added 5 ml of solvent. The mixture is stirred in a water bath at 20° C. The solvent is further slowly added under stirring until a clear solution appears.
The amount of used solvent is noted.

As for `CC(=O)c1cccc(O)c1` [HAP, 3-hydroxy-acetophenon], the “Solvent in ml per g HAP” value is 46 ml per g HAP (solvent Acetone); 6 ml per g HAP (solvent Acetonitrile); above 200 ml per g HAP (solvent Cyclohexane); 22 ml per g HAP (solvent DCM); 20 ml per g HAP (solvent Ethanol); 8 ml per g HAP (solvent Ether). Moreover, the “Solvent in ml per g HAP” value is reported as 10 ml per g HAP (solvent Methanol); 9 ml per g HAP (solvent Tetraglyme); 156 ml per g HAP (solvent Toluene); 20 ml per g HAP (solvent n-Heptane); 23 ml per g HAP (solvent n-Hexane).
